How the values were obtained:
Experiment in all cases: relative viability (nuclei count vs DMSO), 5 days (fraction); higher = more cells survive
[1] = compound: CN(NC(=O)CC(=O)NN(C)C(=S)c1ccccc1)C(=S)c1ccccc1 [Elesclomol] + CC(=O)Nc1cccc(-n2c(=O)n(C3CC3)c(=O)c3c(Nc4ccc(I)cc4F)n(C)c(=O)c(C)c32)c1 [Trametinib] (partner 0.02 µM)
In short: (§1)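 One day after seeding in 1536-well plates, lung cancer cell lines were dosed by pin tool. Dosing was either single-drug or a fixed anchor-drug dose plus five library-drug doses (not always all listed) in √10 steps. After 5 days, nuclei were stained in one fix-and-stain step and counted on 4× images, and relative viability is the nuclei count of treated wells over that of vehicle wells, given as the median of duplicate plates.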

[2] = compound: CN(NC(=O)CC(=O)NN(C)C(=S)c1ccccc1)C(=S)c1ccccc1 [Elesclomol] + CC(=O)c1c(C)c2cnc(Nc3ccc(N4CCNCC4)cn3)nc2n(C2CCCC2)c1=O [Palbociclib] (partner 0.5 µM)
In short: as §1

[3] = compound: CN(NC(=O)CC(=O)NN(C)C(=S)c1ccccc1)C(=S)c1ccccc1 [Elesclomol] + Cc1cc(Nc2cc(N3CCN(C)CC3)nc(Sc3ccc(NC(=O)C4CC4)cc3)n2)n[nH]1 [Tozasertib] (partner 0.1 µM)
In short: as §1

[4] = compound: CN(NC(=O)CC(=O)NN(C)C(=S)c1ccccc1)C(=S)c1ccccc1 [Elesclomol] + Cc1nc(Nc2ncc(C(=O)Nc3c(C)cccc3Cl)s2)cc(N2CCN(CCO)CC2)n1 [Dasatinib] (partner 0.075 µM)
In short: as §1

[5] = compound: CN(NC(=O)CC(=O)NN(C)C(=S)c1ccccc1)C(=S)c1ccccc1 [Elesclomol] + NC(=O)Nc1cc(-c2cccc(F)c2)sc1C(=O)N[C@H]1CCCNC1 [AZD7762] (partner 0.2 µM)
In short: as §1

Cell Line	relative viability ([1]; first compound 0.003162 µM)	relative viability ([1]; first compound 0.01 µM)	relative viability ([1]; first compound 0.03162 µM)	relative viability ([1]; first compound 0.1 µM)	relative viability ([2]; first compound 0.003162 µM)	relative viability ([2]; first compound 0.01 µM)	relative viability ([2]; first compound 0.03162 µM)	relative viability ([2]; first compound 0.1 µM)	relative viability ([3]; first compound 0.003162 µM)	relative viability ([3]; first compound 0.01 µM)	relative viability ([3]; first compound 0.03162 µM)	relative viability ([3]; first compound 0.1 µM)	relative viability ([4]; first compound 0.003162 µM)	relative viability ([4]; first compound 0.01 µM)	relative viability ([4]; first compound 0.03162 µM)	relative viability ([4]; first compound 0.1 µM)	relative viability ([5]; first compound 0.003162 µM)	relative viability ([5]; first compound 0.01 µM)	relative viability ([5]; first compound 0.03162 µM)	relative viability ([5]; first compound 0.1 µM)
NCI-H647	0.553	0.347	0.235	0.148	0.309	0.257	0.128	0.0311	0.388	0.212	0.0671	0.0175	0.172	0.142	0.0544	0.0326	0.539	0.253	0.0623	0.0307
NCI-H2009	0.283	0.259	0.15	0.0957	0.224	0.172	0.116	0.0798	0.684	0.219	0.112	0.0954	0.263	0.126	0.112	0.0747				
EPLC-272H	0.264	0.111	0.09	0.119	0.352	0.117	0.118	0.112	0.223		0.331	0.101	0.397		0.405	0.059	0.255	0.159	0.11	0.104
NCI-H520	0.789	0.65	0.301	0.137	0.254	0.213	0.183	0.0937	0.442	0.355	0.223	0.181	0.166	0.158	0.138	0.0789				
NCI-H2405	0.687	0.468	0.295	0.272	0.507	0.395	0.303	0.28	0.691	0.47	0.292	0.315	0.227	0.231	0.222	0.203	0.692	0.576	0.269	0.281
NCI-H2085	0.608	0.434	0.207	0.174	0.459	0.423	0.333	0.255	0.76	0.703	0.529	0.457	0.242	0.235	0.273	0.235	1.04	0.875	0.394	0.25
NCI-H322M	0.497	0.423	0.298	0.217	0.387	0.381	0.331	0.246	0.335	0.275	0.186	0.122	0.251	0.206	0.123	0.0962	0.484	0.411	0.259	0.161
NCI-H1944	0.48	0.456	0.352	0.266	0.328	0.328	0.347	0.227	0.236	0.251	0.23	0.139	0.223	0.205	0.229	0.155	0.469	0.567	0.408	0.206
LC-2-ad	0.888	0.811	0.272	0.197	0.482	0.409	0.223	0.193	0.394	0.274	0.277	0.231	0.492	0.196	0.202	0.179	0.874	0.819	0.231	0.136
NCI-H358	0.107	0.103	0.0862	0.0746	0.132	0.105	0.0798	0.0844	0.0718	0.0649	0.0613	0.0545	0.0973	0.101	0.0734	0.0654	0.305	0.182	0.161	0.102
NCI-H2170	0.949	0.95	0.898	0.607	0.396	0.358	0.358	0.29	0.715	0.641	0.703	0.491	0.546	0.539	0.484	0.43	0.896	0.846	0.852	0.493
A-427	0.761	0.411	0.236	0.183	0.498	0.455	0.211	0.178	0.226	0.186	0.149	0.0996	0.661	0.582	0.358	0.127	0.756	0.527	0.188	0.151
NCI-H1666	0.801	0.675	0.689	0.662	0.682	0.563	0.575	0.583	0.579	0.457	0.375	0.403	0.9	0.585	0.412	0.378	0.784	0.807	0.492	0.416
LOU-NH91	0.814	0.733	0.769	0.643	0.518	0.566	0.535	0.508	0.631	0.575	0.581	0.568	0.546	0.52	0.428	0.432	0.769	0.726	0.563	0.471
ABC-1					0.327	0.265	0.288	0.258	0.193	0.203	0.18	0.187	0.173	0.233	0.207	0.193	0.294	0.252	0.309	0.236
NCI-H1651	0.854	0.842	0.858	0.538	0.509	0.516	0.532	0.341	0.6	0.601	0.116	0.108	0.343	0.258	0.115	0.0916	0.462	0.469	0.345	0.334

Cell Line	relative viability ([1]; first compound 0.003162 µM)	relative viability ([1]; first compound 0.01 µM)	relative viability ([1]; first compound 0.03162 µM)	relative viability ([1]; first compound 0.1 µM)	relative viability ([2]; first compound 0.003162 µM)	relative viability ([2]; first compound 0.01 µM)	relative viability ([2]; first compound 0.03162 µM)	relative viability ([2]; first compound 0.1 µM)	relative viability ([3]; first compound 0.003162 µM)	relative viability ([3]; first compound 0.01 µM)	relative viability ([3]; first compound 0.03162 µM)	relative viability ([3]; first compound 0.1 µM)	relative viability ([4]; first compound 0.003162 µM)	relative viability ([4]; first compound 0.01 µM)	relative viability ([4]; first compound 0.03162 µM)	relative viability ([4]; first compound 0.1 µM)	relative viability ([5]; first compound 0.003162 µM)	relative viability ([5]; first compound 0.01 µM)	relative viability ([5]; first compound 0.03162 µM)	relative viability ([5]; first compound 0.1 µM)
HCC-44	1.14	1.09	1.08	1.05	0.975	0.895	0.939	0.952	0.897	0.794	0.17	0.194					1	0.942	0.996	1
SK-LU-1	0.517	0.316	0.287	0.338	0.35	0.305	0.344	0.388	0.336	0.271	0.238	0.15	0.199	0.197	0.161	0.0738				
NCI-H1703																	0.132	0.0974	0.124	0.0978
NCI-H2023	0.469	0.149	0.0579	0.045	0.355	0.124	0.0385	0.0417	0.282	0.192	0.0576	0.0475	0.421	0.117	0.0528	0.0413				
NCI-H661	0.565	0.404	0.314	0.244	0.408	0.337	0.235	0.181	0.356	0.3	0.245	0.213	0.869	0.477	0.223	0.177				
COR-L 105	0.465	0.478	0.316	0.311	0.397	0.358	0.317	0.291	0.385	0.285	0.223	0.142	0.303	0.248	0.21	0.079				
NCI-H2228	0.573	0.228	0.177	0.0514	0.676	0.513	0.225	0.0449	0.242	0.257	0.166	0.051	0.545	0.269	0.2	0.039				
NCI-H596	0.798	0.865	0.368	0.237					0.925	0.828	0.598	0.178	0.606	0.545	0.575	0.21	1.19	0.943	0.927	0.252
NCI-H1650	0.202	0.188	0.116	0.102	0.234	0.155	0.104	0.0955	0.227	0.168	0.139	0.136	0.21	0.17	0.156	0.154				
NCI-H1792	0.367		0.366	0.267	0.544	0.569	0.607	0.662					0.951	0.586	0.612	0.655	0.666		0.608	0.257
SK-MES-1	0.584	0.635	0.501	0.415	0.325	0.291	0.221	0.184	0.842	0.791	0.318	0.479	0.413	0.25	0.187	0.148				
UMC-11	0.703	0.653	0.407	0.369	0.321	0.275	0.29	0.249	0.205	0.199	0.185	0.168	0.439	0.423	0.374	0.235				
NCI-H1563													0.447	0.476	0.413	0.382				
COR-L23	0.55	0.22	0.239	0.101	0.276	0.17	0.153	0.115	0.234	0.155	0.15	0.0966	0.439	0.254	0.141	0.068				
SW 1573	0.192	0.115	0.0701	0.0281	0.269	0.104	0.0985	0.0326	0.133	0.119	0.0792	0.0199	0.192	0.094	0.043	0.0143				

From the supplement of paper PMC10307832
